In ChEMBL document CHEMBL4417636, “Small molecule inhibitors of pendrin ion exchange and pharmaceutical compositions” (2017):
Activity calls are given as the source filed them. No cut-off for these calls is given here.

Target: T1, Solute carrier family 12 member 2 (Homo sapiens) (UniProt P55011)
T1 sequence (whole entry): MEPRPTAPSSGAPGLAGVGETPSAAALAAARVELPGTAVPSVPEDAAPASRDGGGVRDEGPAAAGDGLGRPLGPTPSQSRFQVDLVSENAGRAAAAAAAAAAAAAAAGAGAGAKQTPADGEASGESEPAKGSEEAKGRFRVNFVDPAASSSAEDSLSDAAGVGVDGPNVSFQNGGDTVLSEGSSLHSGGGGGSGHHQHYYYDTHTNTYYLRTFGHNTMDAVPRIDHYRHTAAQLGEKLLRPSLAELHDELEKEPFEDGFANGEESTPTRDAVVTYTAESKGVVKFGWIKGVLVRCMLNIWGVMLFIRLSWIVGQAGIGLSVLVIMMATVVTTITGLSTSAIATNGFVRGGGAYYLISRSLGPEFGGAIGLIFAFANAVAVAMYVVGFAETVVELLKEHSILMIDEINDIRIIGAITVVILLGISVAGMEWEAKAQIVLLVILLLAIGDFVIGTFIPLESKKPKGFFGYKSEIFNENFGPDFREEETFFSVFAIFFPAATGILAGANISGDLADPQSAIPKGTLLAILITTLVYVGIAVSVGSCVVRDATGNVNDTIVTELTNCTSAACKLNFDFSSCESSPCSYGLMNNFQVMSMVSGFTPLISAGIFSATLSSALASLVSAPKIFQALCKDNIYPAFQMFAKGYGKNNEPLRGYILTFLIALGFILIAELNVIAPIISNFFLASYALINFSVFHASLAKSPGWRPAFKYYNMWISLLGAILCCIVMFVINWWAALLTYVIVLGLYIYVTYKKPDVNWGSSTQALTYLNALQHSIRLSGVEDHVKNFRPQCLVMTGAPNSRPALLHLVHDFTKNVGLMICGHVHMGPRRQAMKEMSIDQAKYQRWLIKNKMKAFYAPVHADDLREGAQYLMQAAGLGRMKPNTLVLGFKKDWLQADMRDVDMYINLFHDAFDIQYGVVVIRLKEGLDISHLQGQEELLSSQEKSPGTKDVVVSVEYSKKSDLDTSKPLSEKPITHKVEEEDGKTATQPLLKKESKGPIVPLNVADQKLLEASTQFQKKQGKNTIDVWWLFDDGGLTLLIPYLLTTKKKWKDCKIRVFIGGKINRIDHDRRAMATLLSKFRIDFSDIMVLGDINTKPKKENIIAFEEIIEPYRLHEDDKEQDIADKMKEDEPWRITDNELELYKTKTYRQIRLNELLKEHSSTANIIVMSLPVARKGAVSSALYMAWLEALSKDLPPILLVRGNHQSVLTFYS
Experiment: Inhibition of human NKCC1 expressed in COS7 co-expressing EYFP-HIF assessed as effect on I(-) gradient at 25 uM by YFP-based fluorescence quenching assay

inhibition: inactive
SMILES: Cc1n[nH]c(-c2cc(S(=O)(=O)NC3CCCc4ccccc43)c(C)s2)c1C (stereo unspecified)
